Test results: PubChem BioAssay AID328 (DTP/NCI, 2004)
Where “and” joins values, the source holds several entries; their conditions need not be identical. Identical values can stand only once. Toxic doses and inconclusive results are not listed. How the source made its calls: active means survival T/C of 150% or more; inactive means T/C below 125% in these data.

Test system: BDF1 mice, P388 leukemia ip, median survival T/C
Assay: NCI In Vivo Anticancer Drug Screen. Data for tumor model P388 Leukemia (intraperitoneal) in B6D2F1 (BDF1) mice
Conditions: endpoint: median survival time, higher = longer survival
Method in brief: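 In tumour-bearing mice, survival after compound treatment is set against the vehicle group and given as a quotient.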

[1] = dose: 100.0 mg/kg/injection, schedule: Q01DX009 (ip), vehicle: saline with Tween-80
[2] = dose: 200.0 mg/kg/injection, schedule: Q01DX009 (ip), vehicle: saline with Tween-80
[3] = dose: 6.25 mg/kg/injection, schedule: Q01DX009 (ip), vehicle: saline
[4] = dose: 100.0 mg/kg/injection, schedule: Q04DX003 (ip), vehicle: saline with Tween-80
[5] = dose: 400.0 mg/kg/injection, schedule: Q04DX003 (ip), vehicle: saline with Tween-80
[6] = dose: 100.0 mg/kg/injection, schedule: Q04DX003 (ip), vehicle: Klucel (hydroxypropylcellulose) (HPC)
[7] = dose: 200.0 mg/kg/injection, schedule: Q04DX003 (ip), vehicle: Klucel (hydroxypropylcellulose) (HPC)
[8] = dose: 400.0 mg/kg/injection, schedule: Q04DX003 (ip), vehicle: Klucel (hydroxypropylcellulose) (HPC)
[9] = dose: 12.5 mg/kg/injection, schedule: Q01DX009 (ip), vehicle: Klucel (hydroxypropylcellulose) (HPC)
[10] = dose: 25.0 mg/kg/injection, schedule: Q01DX009 (ip), vehicle: Klucel (hydroxypropylcellulose) (HPC)
[11] = dose: 200.0 mg/kg/injection, schedule: Q04DX003 (ip), vehicle: saline with Tween-80

Measured: T/C

O=Nc1ccc(O)c(=O)cc1
inactive: dose: 1.0 mg/kg/injection, schedule: Q01DX009 (ip), vehicle: saline with Tween-80 109 % of control | dose: 1.0 mg/kg/injection, schedule: Q04DX003 (ip), vehicle: saline 104 % of control | dose: 2.0 mg/kg/injection, schedule: Q01DX009 (ip), vehicle: saline with Tween-80 109 % of control | dose: 2.0 mg/kg/injection, schedule: Q04DX003 (ip), vehicle: saline 104 % of control | dose: 4.0 mg/kg/injection, schedule: Q01DX009 (ip), vehicle: saline with Tween-80 90 % of control | dose: 4.0 mg/kg/injection, schedule: Q04DX003 (ip), vehicle: saline 116 % of control

CCC(C)C(=O)/C=C/c1ccccc1 (configuration not stated)
inactive: dose: 50.0 mg/kg/injection, schedule: Q01DX009 (ip), vehicle: saline with Tween-80 96 % of control | [1] 107 % of control | [2] 114 % of control

C=Cn1ccnc1C(O)(c1ccc(Cl)cc1)c1ccc(Cl)cc1
inactive: [1] 116 % of control

CCCCCCCCCCCCSC(=N)N
inactive: dose: 0.39 mg/kg/injection, schedule: Q04DX003 (ip), vehicle: saline 104 % of control | dose: 0.78 mg/kg/injection, schedule: Q04DX003 (ip), vehicle: saline 104 % of control | dose: 3.12 mg/kg/injection, schedule: Q04DX003 (ip), vehicle: saline 100 % of control | [3] 109 % of control | dose: 12.5 mg/kg/injection, schedule: Q01DX009 (ip), vehicle: saline 100 % of control | dose: 25.0 mg/kg/injection, schedule: Q01DX009 (ip), vehicle: saline 100 % of control

Nc1ncnc2c1ccn2C1OC2COP(=O)(O)OC2C1O (configuration not stated)
active: dose: 5.0 mg/kg/injection, schedule: Q01DX010 (ip), vehicle: saline 150 % of control
inactive: dose: 0.63 mg/kg/injection, schedule: Q01DX010 (ip), vehicle: saline 100 % of control | dose: 1.25 mg/kg/injection, schedule: Q01DX010 (ip), vehicle: saline 110 % of control

C=C1C(=O)OC2C1C(OC(=O)/C(C)=C/C)CC(O)(CCl)C1C(OC(C)=O)C=C(C)C21O (configuration not stated)
active: dose: 100.0 mg/kg/injection, schedule: Q01DX010 (ip), vehicle: saline 155 % of control
inactive: dose: 5.0 mg/kg/injection, schedule: Q01DX010 (ip), vehicle: carboxymethylcellulose (CMC) 100 % of control | dose: 10.0 mg/kg/injection, schedule: Q01DX010 (ip), vehicle: carboxymethylcellulose (CMC) 100 % of control | dose: 20.0 mg/kg/injection, schedule: Q01DX010 (ip), vehicle: carboxymethylcellulose (CMC) 100 % of control | dose: 25.0 mg/kg/injection, schedule: Q01DX010 (ip), vehicle: saline 116 % of control | dose: 50.0 mg/kg/injection, schedule: Q01DX010 (ip), vehicle: saline 100 % of control

CCCC(=O)OCc1ccc(Cl)cc1Cl
inactive: [4] 109 % of control | [5] 113 % of control

CCOc1cc(-c2nccc3cc(OC)c(OC)cc23)cc(OCC)c1OCC
inactive: dose: 100.0 mg/kg/injection, schedule: Q01DX009 (ip), vehicle: Klucel (hydroxypropylcellulose) (HPC) 110 % of control | [6] 100 % of control | dose: 200.0 mg/kg/injection, schedule: Q01DX009 (ip), vehicle: Klucel (hydroxypropylcellulose) (HPC) 110 % of control | [7] 100 % of control | dose: 400.0 mg/kg/injection, schedule: Q01DX009 (ip), vehicle: Klucel (hydroxypropylcellulose) (HPC) 110 % of control | [8] 100 % of control

CC(=O)/C(C)=C/C=O
inactive: dose: 0.25 mg/kg/injection, schedule: Q01DX009 (ip), vehicle: water 116 % of control | dose: 0.5 mg/kg/injection, schedule: Q01DX009 (ip), vehicle: water 89 % of control and 96 % of control and 116 % of control | dose: 1.0 mg/kg/injection, schedule: Q01DX009 (ip), vehicle: water 97 % of control and 103 % of control and 116 % of control | dose: 2.0 mg/kg/injection, schedule: Q01DX009 (ip), vehicle: water 94 % of control and 97 % of control | dose: 4.0 mg/kg/injection, schedule: Q01DX009 (ip), vehicle: water 96 % of control and 97 % of control and 116 % of control | dose: 8.0 mg/kg/injection, schedule: Q01DX009 (ip), vehicle: water 103 % of control

N#CCCSC(=S)C1CCCC1=N (configuration not stated)
inactive: [1] 112 % of control | [2] 102 % of control

CS(=O)(=O)ON1C(=O)c2ccccc2C1=O
inactive: dose: 100.0 mg/kg/injection, schedule: Q04DX003 (ip), vehicle: saline 120 % of control

CCN(CC)c1nc(NC2CCCCC2)c2nc(N(CC)CC)nc(NC3CCCCC3)c2n1
inactive: dose: 3.13 mg/kg/injection, schedule: Q01DX009 (ip), vehicle: Klucel (hydroxypropylcellulose) (HPC) 101 % of control | dose: 6.25 mg/kg/injection, schedule: Q01DX009 (ip), vehicle: Klucel (hydroxypropylcellulose) (HPC) 110 % of control | [9] 99 % of control | [10] 101 % of control

CC[N+]1(CC)CC[N+]2(CC1)CC[N+]1(CC[N+](CC)(CC)CC1)CC2
inactive: dose: 50.0 mg/kg/injection, schedule: Q01DX009 (ip), vehicle: saline 101 % of control | dose: 100.0 mg/kg/injection, schedule: Q01DX009 (ip), vehicle: saline 101 % of control | dose: 200.0 mg/kg/injection, schedule: Q01DX009 (ip), vehicle: saline 106 % of control

N#CC(/C=C/c1ccccc1)Nc1ccccc1C(N)=O (configuration not stated)
inactive: dose: 25.0 mg/kg/injection, schedule: Q01DX001 (ip), vehicle: saline with Tween-80 109 % of control | dose: 50.0 mg/kg/injection, schedule: Q01DX001 (ip), vehicle: saline with Tween-80 104 % of control | dose: 100.0 mg/kg/injection, schedule: Q01DX001 (ip), vehicle: saline with Tween-80 100 % of control

CCCCC1C(=O)OC(C(C)C(O)CCCN=C(N)N)C(C)C=C(C)CCCCC(O)CC(O)CC(O)CC(O)CC(O)C(OC2OC(CO)C(O)C2O)C=C(C)C(O)CCCC(O)CCCC(O)CCC(C)C1O (configuration not stated)
inactive: dose: 0.3 mg/kg/injection, schedule: Q01DX010 (ip), vehicle: carboxymethylcellulose (CMC) 90 % of control | dose: 0.6 mg/kg/injection, schedule: Q01DX010 (ip), vehicle: carboxymethylcellulose (CMC) 90 % of control | dose: 1.2 mg/kg/injection, schedule: Q01DX010 (ip), vehicle: carboxymethylcellulose (CMC) 95 % of control | dose: 2.5 mg/kg/injection, schedule: Q01DX010 (ip), vehicle: carboxymethylcellulose (CMC) 90 % of control

CCOC(=O)C(=CN1CCCCCC1)C(=O)OCC
inactive: [4] 109 % of control | [11] 109 % of control | [5] 113 % of control

CC1(C)N=C(N)N=C(N)N1c1cccc(OCCCOc2ccccc2)c1
inactive: dose: 50.0 mg/kg/injection, schedule: Q01DX001 (ip), vehicle: Klucel (hydroxypropylcellulose) (HPC) 106 % of control

O=C1C2CCCC1C(c1ccccc1)C=C2c1ccc(O)cc1 (configuration not stated)
inactive: [4] 104 % of control | [11] 104 % of control | [5] 114 % of control

CCCCCCCC[N+]12CC[N+](CCCCCCCC)(CC1)CC2
inactive: dose: 3.13 mg/kg/injection, schedule: Q01DX009 (ip), vehicle: saline 106 % of control | [3] 103 % of control

CC(=O)OC1C2CCC3C(C)(O)C4CC(O)C(C)(C)C4(O)C(O)CC13CC2(C)O (configuration not stated)
inactive: dose: 12.5 micrograms/kg/injection, schedule: Q01DX009 (ip), vehicle: Klucel (hydroxypropylcellulose) (HPC) 96 % of control | dose: 25.0 micrograms/kg/injection, schedule: Q01DX009 (ip), vehicle: Klucel (hydroxypropylcellulose) (HPC) 91 % of control | dose: 50.0 micrograms/kg/injection, schedule: Q01DX009 (ip), vehicle: Klucel (hydroxypropylcellulose) (HPC) 87 % of control

CCCCCCCC(=O)NN
inactive: dose: 3.12 mg/kg/injection, schedule: Q01DX009 (ip), vehicle: other 96 % of control | dose: 6.25 mg/kg/injection, schedule: Q01DX009 (ip), vehicle: other 98 % of control | dose: 12.5 mg/kg/injection, schedule: Q01DX009 (ip), vehicle: other 99 % of control | dose: 25.0 mg/kg/injection, schedule: Q01DX009 (ip), vehicle: other 117 % of control | dose: 50.0 mg/kg/injection, schedule: Q01DX009 (ip), vehicle: other 117 % of control | dose: 50.0 mg/kg/injection, schedule: Q04DX003 (ip), vehicle: water 91 % of control | dose: 100.0 mg/kg/injection, schedule: Q01DX009 (ip), vehicle: other 92 % of control | dose: 100.0 mg/kg/injection, schedule: Q04DX003 (ip), vehicle: water 124 % of control | dose: 200.0 mg/kg/injection, schedule: Q01DX009 (ip), vehicle: other 97 % of control

CSC1CCCC(=O)C1 (configuration not stated)
inactive: [9] 100 % of control | [10] 105 % of control | [6] 100 % of control | [7] 95 % of control | [8] 90 % of control
